Measured values published in patent US10080729B2, “Composition for use in the treatment of intervertebral misalignment” (STAYBLE THERAPEUTICS AB, priority 2015, dated 2018).

Tests used:
[1] = system: nucleus pulposus of the L3-4 intervertebral disc; test: Flexion stiffness of the injected intervertebral disc (Example 1); format: in vivo, pig; conditions: injected disc L 3-4; 0.2 mL of 1.34 mol/L lactic acid into nucleus pulposus; seven days after injection; mean ± SD; two pigs
Method: Access to the L4-5 intervertebral disc was obtained through a lateral incision between the lowest rib and the iliac crest on the left side of each pig. Thereafter, the L3-4 intervertebral disc was incised with a scalpel. […] The composition was injected in a single step at a single occasion.

pig = test: Tolerability and injection site observation (Example 1); format: in vivo; conditions: two pigs
Method: Two pigs were anesthetized and placed on their right side. Access to the L4-5 intervertebral disc was obtained through a lateral incision between the lowest rib and the iliac crest on the left side of each pig. Thereafter, the L3-4 intervertebral disc was incised with a scalpel.
The composition was injected in a single step at a single occasion.
At harvest, the pigs were killed.
The injection site was observed by the naked eye. […] The segment of the vertebral column extending from the lumbar vertebra L2 to the sacral vertebra S1 was removed. The facet joints were removed, thus allowing full flexibility of the discs with no restraints from other structures.

[2] = system: intervertebral disc L1/2 to L3/4; test: Visual evaluation of fibrotisation of the nucleus space (Example 3); format: in vivo, pig
Excerpt: (§1) Eleven pigs were anesthetized and placed on their right side. Through a lateral incision the discs to be injected were exposed. […] After 2, 28 or 84 days the pigs were killed and the lumbar spine was harvested. All musculature was removed as well as the facet joints and ligamentum flavum between the L1/2, L2/3 and L3/4 vertebrae. The following endpoints were used: • A. X-ray pictures were taken at the day of injection and at the harvest day to ascertain that the injection was correctly placed and to determine if the discs were radio-opaque after 2, 28 and 84 days. • B. The X-rays taken post-mortem were used to measure disc height. • C. The sectioned discs were photographed and the degree of fibrotisation was visually evaluated.

[3] = system: nucleus pulposus of the L3-4 intervertebral disc; test: Dimension of the disc space after administration (Example 1); format: in vivo, pig; conditions: injected disc L 3-4; 0.2 mL of 1.34 mol/L lactic acid; seven days after injection; mean ± SD
Method: 110. performing a cross-section of the discs and measuring the length (anterio-posterior direction) and the width (bilateral direction) of the disc space. Two pigs were anesthetized and placed on their right side. Access to the L4-5 intervertebral disc was obtained through a lateral incision between the lowest rib and the iliac crest on the left side of each pig. Thereafter, the L3-4 intervertebral disc was incised with a scalpel. […] The composition was injected in a single step at a single occasion. The intervertebral discs (L2-3, L3-4, L4-5) were cross-sectioned and the length of the disc space (anterio-posterior direction) and the width (bilateral direction) of the disc space were measured by calipers. In FIGS. 5 and 6, an intervertebral disc is schematically shown in cross-section. The intervertebral disc comprises the annulus fibrosus 10, and a disc space defined by the annulus fibrosus and comprising the nucleus pulposus 11.

[4] = system: intervertebral disc L1/2 to L3/4; test: Disc height on post-mortem X-ray (Example 3); format: in vivo, pig; conditions: 120 or 240 mg/ml lactic acid + iohexol, 0.2 ml; both doses; 2, 28 and 84 days; FIG. 16
Excerpt: as §1

CC(O)C(=O)O (stereo not drawn) [lactic acid]
Difference in distance between transverse processes before and upon full lateral flexion [1]: 0.3 ± 0.6 mm | Adverse reaction such as decreased mobility or vocalization (pig; 0.2 mL of 1.34 mol/L lactic acid intradiscal, period of seven days until harvest): no adverse reaction | Adverse reaction at the injection site (bleedings, inflammation or necrosis), naked eye (pig; at harvest seven days after injection): No adverse reaction at the injection site | Fibrotisation of the nucleus space ([2]; 84 days after injection, some discs, FIG. 17a): fibrosis was close to complete | Fibrotisation of the nucleus space ([2]; after 2 days, 120 or 240 mg/ml lactic acid, 0.2 ml, some discs): tendency to fibrotisation | Fibrotisation of the nucleus space ([2]; after 28 days, 120 or 240 mg/ml lactic acid, 0.2 ml): fibrotisation was evident | Average antero-posterior length of the disc space [3]: 13.5 ± 1.3 mm | Average bilateral width of the disc space [3]: 4.0 ± 1.4 mm | Disc height, discs injected with lactic acid versus placebo (X-ray) [4]: no difference in height
